Laboratory results as given in patent US10172868B2, “Substituted quinazolines for inhibiting kinase activity” (NeuPharma, Inc., priority 2013, dated 2019).

Tests used:
A431 cells = test: cells; settings: Homo sapiens, A-431, 72 h, read-out: IC50 in A431 cells
Experimental: Taxol (as a positive control. Sigma) and compounds were dissolved in DMSO (Sigma), and the final concentration of DMSO in the medium was 1%. Tumor cells were plated in 96-well plates at densities of about 4000 cells/well of a 96-well plate and allowed to adhere/grow for 24 h. They were then treated with various concentrations of drug for 72 h, 3-(4,5-Dimethylthiazol-2-yl)-2,5-diphenyltetrazolium bromide (MTT, Sigma) was used to determine the number of viable cells at the time of compound addition and the number of cells remaining after 72 h compound exposure. The number of cells remaining after 72 h was compared to the number of viable cells at the time of compound addition by measuring the absorbance at 570 nm, allowing for the calculation of growth inhibition.
All concentrations of compounds were tested in triplicate and controls were averaged over 4 wells. IC50 was calculated by plotting the concentration of compound vs the percentage of inhibition in treated wells using GraphPad Prism 5.
The scale utilized in Tables 5 is as follows: +++ less than 100 nM; ++ between 100 nM and 500 nM; and + greater than 500 nM.

H1975 cells = test: Inhibition of cancer cell growth, MTT assay, H1975; settings: Homo sapiens, NCI-H1975, 72 h, read-out: IC50 in H1975 cells
EGFR (ErbB1) = EGFR (ErbB1) (Homo sapiens (Human), UniProt P00533); test: Z'-LYTE kinase inhibition assay, EGFR; format: biochemical; settings: read-out: % inhibition against EGFR (Compound at 0.041 μM)
Sequence of EGFR (ErbB1) (P00533 25-1210): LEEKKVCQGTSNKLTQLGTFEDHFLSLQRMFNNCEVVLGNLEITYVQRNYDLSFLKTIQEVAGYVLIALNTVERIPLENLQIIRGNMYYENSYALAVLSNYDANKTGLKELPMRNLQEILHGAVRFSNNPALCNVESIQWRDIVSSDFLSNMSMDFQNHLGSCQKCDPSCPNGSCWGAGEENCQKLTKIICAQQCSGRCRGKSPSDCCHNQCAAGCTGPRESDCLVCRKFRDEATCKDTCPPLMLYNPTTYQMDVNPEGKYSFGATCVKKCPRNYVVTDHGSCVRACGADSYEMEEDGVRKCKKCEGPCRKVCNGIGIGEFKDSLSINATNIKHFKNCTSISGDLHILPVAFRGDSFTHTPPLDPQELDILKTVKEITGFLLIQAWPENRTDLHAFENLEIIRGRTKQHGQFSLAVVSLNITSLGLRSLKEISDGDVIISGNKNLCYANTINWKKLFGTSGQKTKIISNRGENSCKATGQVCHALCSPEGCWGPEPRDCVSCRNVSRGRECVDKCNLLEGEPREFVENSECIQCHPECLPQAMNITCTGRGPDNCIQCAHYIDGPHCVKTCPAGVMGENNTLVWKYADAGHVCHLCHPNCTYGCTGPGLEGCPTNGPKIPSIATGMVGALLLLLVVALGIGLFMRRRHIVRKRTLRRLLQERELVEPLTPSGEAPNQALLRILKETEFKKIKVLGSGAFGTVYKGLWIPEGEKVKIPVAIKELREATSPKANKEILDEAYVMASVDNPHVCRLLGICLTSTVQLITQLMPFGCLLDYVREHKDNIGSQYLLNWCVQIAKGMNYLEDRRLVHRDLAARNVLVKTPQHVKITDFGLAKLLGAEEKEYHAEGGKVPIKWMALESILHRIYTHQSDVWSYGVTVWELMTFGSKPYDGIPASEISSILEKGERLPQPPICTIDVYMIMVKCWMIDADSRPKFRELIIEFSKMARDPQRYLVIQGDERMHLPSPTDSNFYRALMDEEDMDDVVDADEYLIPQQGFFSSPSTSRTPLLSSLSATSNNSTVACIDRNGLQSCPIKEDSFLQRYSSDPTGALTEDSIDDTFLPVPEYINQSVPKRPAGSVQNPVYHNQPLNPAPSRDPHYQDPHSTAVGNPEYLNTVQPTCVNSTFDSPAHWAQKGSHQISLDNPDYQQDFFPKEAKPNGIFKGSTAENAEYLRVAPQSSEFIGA
Experimental: Inhibitory activities of compounds against BTK, EGFR and EGFR mutants (EGFR L858R, EGFR T790M, EGFR L858R/T790M), FGFR1, FGFR2, JAK2, JAK3 and KDR were measured by Invitrogen using Z'-LYTE® Method as briefly described in the following. Test Compounds are screened in 1% DMSO (final) in the well. For 10 point titrations, 3-fold serial dilutions are conducted from the starting concentration. All ATP Solutions are diluted to a 4× working concentration in Kinase Buffer (50 mM HEPES pH 7.5, 0.01% BRIJ-35, 10 mM MgCl2, 1 mM EGTA). Peptide/Kinase Mixtures are diluted to a 2× working concentration in the appropriate Kinase Buffers as described below. (i) Peptide/Kinase Mixtures for Measurement of EGFR (ErbB1): The 2×EGFR (ErbB1)/[…] mixture is prepared in 50 mM HEPES pH 7.5, 0.01% BRIJ-35, 10 mM MgCl2. 4 mM MnCl2, 1 mM EGTA, 2 mM DTT. The final 10 μL Kinase Reaction consists of 1.1-5.25 ng EGFR (ErbB1) and 2 μM […] in 50 mM HEPES pH 7.5, 0.01% BRIJ-35, 10 mM MgCl2, 2 mM MnCl2. 1 mM EGTA, 1 mM DTT. After the 1 hour Kinase Reaction incubation, 5 μL of a 1:64 dilution of Development Reagent B is added. Reaction starts by 30-second shaking of mixture consisting of 2.5 μL 4× test compound, […] 2× kinase reaction mixture and 2.5 μL 4×ATP Solution on Bar-coded Corning, low volume NBS, black 384-well plate (Corning Cat. #3676). Then the mixture is incubated for 60-minute at room temperature for the kinase reaction, followed by addition of 5 μL of a 1:1024 dilution of development reagent A and 30-second plate shake. The mixture is then incubated for another 60-minute at room temperature for development reaction. Finally fluorescence is read by plate reader. To determine IC50 of a compound against EGFR, EGFR mutant and other kinases, a series of concentrations of the compound were tested for the inhibition.

EGFR (ErbB1) T790M L858R = EGFR (ErbB1) T790M L858R (Homo sapiens (Human), UniProt P00533, L858R/T790M); test: Z'-LYTE kinase inhibition assay, EGFR L858R/T790M; format: biochemical; settings: for inhibition at 0.0137 µM: read-out: % inhibition against EGFR L858R/T790M (Compound at 0.0137 μM); for IC50: read-out: IC50 against EGFR L858R/T790M
Sequence of EGFR (ErbB1) T790M L858R (P00533 25-1210 T790M/L858R): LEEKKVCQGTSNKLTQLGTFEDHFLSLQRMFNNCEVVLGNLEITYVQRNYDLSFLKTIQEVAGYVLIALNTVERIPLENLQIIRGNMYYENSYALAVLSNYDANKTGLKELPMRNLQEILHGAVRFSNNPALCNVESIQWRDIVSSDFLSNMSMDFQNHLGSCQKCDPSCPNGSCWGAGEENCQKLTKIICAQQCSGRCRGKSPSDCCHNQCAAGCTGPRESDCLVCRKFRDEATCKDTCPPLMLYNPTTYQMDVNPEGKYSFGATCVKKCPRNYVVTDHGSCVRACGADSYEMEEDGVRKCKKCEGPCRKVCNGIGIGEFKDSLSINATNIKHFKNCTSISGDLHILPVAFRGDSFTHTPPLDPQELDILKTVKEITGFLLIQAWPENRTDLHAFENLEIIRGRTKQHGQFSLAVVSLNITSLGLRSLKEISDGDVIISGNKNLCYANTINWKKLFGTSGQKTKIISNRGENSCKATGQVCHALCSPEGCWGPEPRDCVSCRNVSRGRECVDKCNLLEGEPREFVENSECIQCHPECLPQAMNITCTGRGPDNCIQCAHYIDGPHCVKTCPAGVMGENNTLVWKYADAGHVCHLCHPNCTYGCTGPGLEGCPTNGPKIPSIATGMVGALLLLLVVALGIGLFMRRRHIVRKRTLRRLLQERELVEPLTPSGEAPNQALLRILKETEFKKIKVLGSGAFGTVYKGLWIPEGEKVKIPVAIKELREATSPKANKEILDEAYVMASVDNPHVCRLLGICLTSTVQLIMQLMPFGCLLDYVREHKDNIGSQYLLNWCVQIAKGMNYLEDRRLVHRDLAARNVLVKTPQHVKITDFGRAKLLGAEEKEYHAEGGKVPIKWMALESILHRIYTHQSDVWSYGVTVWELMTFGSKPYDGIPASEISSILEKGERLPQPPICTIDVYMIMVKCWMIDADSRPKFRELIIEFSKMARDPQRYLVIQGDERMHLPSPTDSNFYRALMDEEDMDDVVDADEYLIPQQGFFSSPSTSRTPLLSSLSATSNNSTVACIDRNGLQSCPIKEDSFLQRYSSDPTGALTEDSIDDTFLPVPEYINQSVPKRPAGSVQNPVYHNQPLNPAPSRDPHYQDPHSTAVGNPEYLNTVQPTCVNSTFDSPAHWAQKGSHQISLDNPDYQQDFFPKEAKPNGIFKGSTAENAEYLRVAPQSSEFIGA
Experimental: Inhibitory activities of compounds against BTK, EGFR and EGFR mutants (EGFR L858R, EGFR T790M, EGFR L858R/T790M), FGFR1, FGFR2, JAK2, JAK3 and KDR were measured by Invitrogen using Z'-LYTE® Method as briefly described in the following. Test Compounds are screened in 1% DMSO (final) in the well. For 10 point titrations, 3-fold serial dilutions are conducted from the starting concentration. All ATP Solutions are diluted to a 4× working concentration in Kinase Buffer (50 mM HEPES pH 7.5, 0.01% BRIJ-35, 10 mM MgCl2, 1 mM EGTA). Peptide/Kinase Mixtures are diluted to a 2× working concentration in the appropriate Kinase Buffers as described below. (iv) Peptide/Kinase Mixtures for Measurement of EGFR (ErbB1) T790M L858R: The 2×EGFR (ErbB1) […] mixture is prepared in 50 mM HEPES pH 6.5, 0.01% BRIJ-35, 10 mM MgCl2, 1 mM EGTA, 0.02% NaN3. […] After the 1 hour Kinase Reaction incubation, 5 μL of a 1:64 dilution of Development Reagent B is added. Reaction starts by 30-second shaking of mixture consisting of 2.5 μL 4× test compound, […] 2× kinase reaction mixture and 2.5 μL 4×ATP Solution on Bar-coded Corning, low volume NBS, black 384-well plate (Corning Cat. #3676). Then the mixture is incubated for 60-minute at room temperature for the kinase reaction, followed by addition of 5 μL of a 1:1024 dilution of development reagent A and 30-second plate shake. The mixture is then incubated for another 60-minute at room temperature for development reaction. Finally fluorescence is read by plate reader. To determine IC50 of a compound against EGFR, EGFR mutant and other kinases, a series of concentrations of the compound were tested for the inhibition.

Row | IC50 (A431 cells) [nM] | IC50 (H1975 cells) [nM] | inhibition at 0.041 µM (EGFR (ErbB1)) [%] | inhibition at 0.0137 µM (EGFR (ErbB1) T790M L858R) [%] | IC50 (EGFR (ErbB1) T790M L858R) [nM] | Structure (SMILES)
1 | > 500 | < 100 | < 50 | > 50 |  | C=CC(=O)Nc1cncc(-c2cccc3cnc(Nc4ccc(N5CCN(CCF)CC5)cc4)nc23)c1 [Example C058, N-(5-(2-((4-(4-(2-fluoroethyl)piperazin-1-yl)phenyl)amino)quinazolin-8-yl)pyridin-3-yl)acrylamide]
2 | > 500 | 100 to 500 | < 50 | < 50 |  | C=CC(=O)Nc1cccc(-c2cccc3cnc(Nc4ccc(N5CCOC5=O)cc4)nc23)c1 [Example C091, N-(3-(2-((4-(2-oxooxazolidin-3-yl)phenyl)amino)quinazolin-8-yl)phenyl)acrylamide]
3 | > 500 | < 100 | < 50 | > 50 | < 100 | C=CC(=O)Nc1cccc(-c2cccc3cnc(Nc4ccc(N5CCN(CCF)CC5)cc4)nc23)c1F [Example C061, N-(2-fluoro-3-(2-((4-(4-(2-fluoroethyl)piperazin-1-yl)phenyl)amino)quinazolin-8-yl)phenyl)acrylamide]
4 | 100 to 500 | 100 to 500 | < 50 | > 50 | < 100 | C=CC(=O)Nc1cccc(-c2cccc3cnc(Nc4ccc(N5CCN(C)CC5)c(Cl)c4)nc23)c1 [Example C072, N-(3-(2-((3-chloro-4-(4-methylpiperazin-1-yl)phenyl)amino)quinazolin-8-yl)phenyl)acrylamide]
5 | > 500 | < 100 | > 50 | > 50 | < 100 | C=CC(=O)Nc1cccc(-c2cccc3cnc(Nc4ccc(N5CCN(C)CC5)cc4)nc23)c1OC [Example C063, N-(2-methoxy-3-(2-((4-(4-methylpiperazin-1-yl)phenyl)amino)quinazolin-8-yl)phenyl)acrylamide]
6 | 100 to 500 | < 100 | > 50 | > 50 | < 100 | C=CC(=O)Nc1cccc(-c2cccc3cnc(Nc4ccc(NC5CCN(CCF)CC5)cc4)nc23)c1 [Example C138, N-(3-(2-((4-((1-(2-fluoroethyl)piperidin-4-yl)amino)phenyl)amino)quinazolin-8-yl)phenyl)acrylamide]
7 |  | < 100 | < 50 | > 50 |  | C=CC(=O)Nc1cccc(-c2cccc3cnc(Nc4ccc(N5CCN(C)CC5)cc4)nc23)c1C(=O)OC [Example C101, methyl 2-acrylamido-6-(2-((4-(4-methylpiperazin-1-yl)phenyl)amino)quinazolin-8-yl)benzoate]
8 |  | < 100 | < 50 | > 50 |  | C=CC(=O)Nc1cccc(-c2cccc3cnc(Nc4cc(F)c(N5CCN(C)CC5)c(F)c4)nc23)c1 [Example C146, N-(3-(2-((3,5-difluoro-4-(4-methylpiperazin-1-yl)phenyl)amino)quinazolin-8-yl)phenyl)acrylamide]
9 |  | < 100 | < 50 | < 50 |  | C=CC(=O)Nc1cccc(-c2cccc3cnc(Nc4ccc(N[C@H]5CCN(C(C)=O)C5)cc4)nc23)c1 [Example C128, (S)-N-(3-(2-((4-((1-acetylpyrrolidin-3-yl)amino)phenyl)amino)quinazolin-8-yl)phenyl)acrylamide]
10 |  | 100 to 500 | < 50 | > 50 |  | C=CC(=O)Nc1cccc(-c2cccc3cnc(Nc4ccc(N5CCN(C)C(C(N)=O)C5)cc4)nc23)c1 (centres unmarked) [Example C093, 4-(4-((8-(3-acrylamidophenyl)quinazolin-2-yl)amino)phenyl)-1-methylpiperazine-2-carboxamide]
11 |  | < 100 | < 50 | < 50 |  | C=CC(=O)Nc1cccc(-c2cccc3cnc(Nc4ccc(O[C@H]5CCN(C(C)=O)C5)cc4)nc23)c1 [Example C131, (S)-N-(3-(2-((4-((1-acetylpyrrolidin-3-yl)oxy)phenyl)amino)quinazolin-8-yl)phenyl)acrylamide]
12 |  | 100 to 500 | < 50 | < 50 |  | C=CC(=O)Nc1cccc(-c2cccc3cnc(Nc4ccc(N5CCOCC5=O)cc4)nc23)c1 [Example C095, N-(3-(2-((4-(3-oxomorpholino)phenyl)amino)quinazolin-8-yl)phenyl)acrylamide]
13 |  | 100 to 500 | < 50 | > 50 | < 100 | C=CC(=O)Nc1cccc(-c2cccc3cnc(Nc4cnc(N5CCN(C)CC5)c(Cl)c4)nc23)c1 [Example C081, N-(3-(2-((5-chloro-6-(4-methylpiperazin-1-yl)pyridin-3-yl)amino)quinazolin-8-yl)phenyl)acrylamide]
14 |  | 100 to 500 | < 50 | > 50 |  | C=CC(=O)Nc1cccc(-c2cccc3cnc(Nc4cnc(N5CCN(C)CC5)c(C#N)c4)nc23)c1 [Example C086, N-(3-(2-((5-cyano-6-(4-methylpiperazin-1-yl)pyridin-3-yl)amino)quinazolin-8-yl)phenyl)acrylamide]
15 |  | < 100 | < 50 | < 50 |  | C=CC(=O)Nc1cccc(-c2cccc3cnc(Nc4ccc(NCC(F)F)cc4)nc23)c1 [Example C135, N-(3-(2-((4-((2,2-difluoroethyl)amino)phenyl)amino)quinazolin-8-yl)phenyl)acrylamide]
16 |  | 100 to 500 | < 50 | < 50 |  | C=CC(=O)Nc1cccc(-c2cccc3cnc(Nc4ccc(O[C@@H]5CCN(C(C)=O)C5)cc4)nc23)c1 [Example C133, (R)-N-(3-(2-((4-((1-acetylpyrrolidin-3-yl)oxy)phenyl)amino)quinazolin-8-yl)phenyl)acrylamide]
17 |  | < 100 | < 50 | > 50 |  | C=CC(=O)Nc1cccc(-c2cccc3cnc(Nc4ccc(N5CCN(CC(C)(C)O)CC5)c(F)c4)nc23)c1 [Example C143, N-(3-(2-((3-fluoro-4-(4-(2-hydroxy-2-methylpropyl)piperazin-1-yl)phenyl)amino)quinazolin-8-yl)phenyl)acrylamide]
18 |  | > 500 | < 50 | > 50 |  | CC(=O)N1CCN(c2ccc(Nc3ncc4cccc(-c5cccc(NC(=O)/C=C/CN(C)C)c5)c4n3)cc2)CC1 [Example C050, (E)-N-(3-(2-((4-(4-acetylpiperazin-1-yl)phenyl)amino)quinazolin-8-yl)phenyl)-4-(dimethylamino)but-2-enamide]
19 |  | > 500 | < 50 | < 50 |  | C=CC(=O)Nc1cccc(-c2cccc3cnc(Nc4ccc(N(C)CCF)cc4)nc23)c1 [Example C064, N-(3-(2-((4-((2-fluoroethyl)(methyl)amino)phenyl)amino)quinazolin-8-yl)phenyl)acrylamide]
